According to patent US12629406B2, “Alterations in endothelin receptors following hemorrhage and resuscitation by centhaquin” (MIDWESTERN UNIVERSITY, priority 2018, dated 2026):

Assay: Rat hemorrhagic shock, hypertonic saline resuscitation: cardiovascular response (MAP, HR, CO, SVR)
Type: in vivo
Conditions: for heart rate (HR): 60 minutes after resuscitation
Protocol: Animals. Male Sprague-Dawley rats (340 to 380 g) (Envigo, Indianapolis, IN) were housed for at least 4 days in a room with controlled temperature (23±1° C.), humidity (50±10%) and light (6:00 A.M. to 6:00 P.M.) before being used. Food and water were made available continuously. Animal care and use for experimental procedures were approved by the Institutional Animal Care and Use Committee of the Midwestern University. All anesthetic and surgical procedures were in compliance with the guidelines established by the Animal Care Committee.
Determination of cardiovascular response. The animals were anesthetized with urethane dissolved in isotonic saline. Urethane was administered in a dose of 1.5 g per kg body weight via intraperitoneal injection. Urethane was selected as an anesthetic agent, because it produces long lasting (8-10 hours) anesthesia with minimal cardiovascular and respiratory system depression. It produces a level of surgical anesthesia characterized by preservation of cardiovascular reflexes (Maggi and Meli 1986). Briefly, anaesthetized rats were immobilized on a surgical board equipped with controlled heating pad. Blood PO2, Pco2 and pH, were maintained using a tracheotomy cannula connected to a rodent ventilator (Model 683, Harvard Apparatus Inc., Holliston, MA). The right carotid artery was exposed to measure the left ventricular performance. Surgical suture (Deknatel, Research Triangle Park, NC) was secured around the proximal end of the carotid artery and an ultra-miniature pressure-volume (P-V) catheter SPR-869 (Millar Instruments, Houston, TX) was inserted through a tiny incision made near the proximal end of the artery. The P-V terminal of the catheter was connected to MPVS-300 P-V unit through PEC-4D and CEC-4B cables and advanced into the left ventricle to obtain the P-V signals. The signals were continuously aquired (1000 S^−1) using the MPVS-300 P-V unit (AD Instruments, Mountain View, CA, USA) and PowerLab 16/30 data acquisition system (AD Instruments). MAP and HR were measured by cannulating the left femoral artery with pressure catheter SPR-320 (Millar Instruments), connected to the ML221 bridge amplifier (AD Instruments) through AEC-10C connector and the signals were acquired (1000 S^−1) using PowerLab 16/30 data acquisition system (Gulati et al. 2012; Pacher et al. 2008). The left femoral vein was cannulated using PE 50 tubing (Clay Adams, Parsipanny, NJ) and secured for resuscitation.
Induction of Hemorrhagic Shock. Hemorrhage was induced by withdrawing blood from the femoral artery at a rate of approximately 0.5 to 1 mL/min until a MAP of 35 mmHg was reached. This MAP was maintained for 30 min by further withdrawal of blood, if necessary. The hemorrhagic shock model used in the present study is a well-established rodent model of manageable pressure hemorrhage (Buehler et al. 2000; Gulati et al. 1997a; Gulati and Sen 1998). The volume of blood loss was about approximately 8.0 ml in each rat and was similar in various groups, amounting to approximately 40% of the total blood. Measured hematocrit levels were similar in various groups. The duration of blood withdrawal was approximately 15 minutes.
Experimental design. To determine the resuscitative effect of centhaquin on cardiovascular system and plasma cytokines in hemorrhagic shock, rats were randomly divided into five groups, Group 1: Sham control (Non-hemorrhaged) (n=5), Group 2: Hemorrhage with no resuscitation (n=5); Group 3: Hemorrhage followed by resuscitation with 3% hypertonic saline (vehicle) (n=5); Group 4: Hemorrhage followed by resuscitation with vehicle plus centhaquin (0.017 mg/kg) (n=5); and Group 5: Hemorrhage followed by resuscitation with vehicle plus centhaquin (0.05 mg/kg) (n=5). Resuscitation was started 30 min after induction of hemorrhagic shock as an intravenous infusion (1 mL/min) through femoral vein using an infusion pump (Harvard Apparatus Infusion/Withdrawal Pump, Millis, MA). […]

SMILES: Cc1cccc(N2CCN(CCc3ccc4ccccc4n3)CC2)c1 [centhaquin, 2-[2-(4-(3-methyphenyl)-1-piperazinyl)]ethyl-quinoline]
- cardiac output (CO) compared to hypertonic saline alone (30 and 60 min post resuscitation): significantly increased
- systemic vascular resistance (SVR) (30 and 60 minutes of resuscitation, versus post-hemorrhage): further decreased
- heart rate (HR) (centhaquin 0.017 mg/kg): 361±10 beats/min
- heart rate (HR) (centhaquin 0.05 mg/kg): 363±10 beats/min
- mean arterial pressure (MAP) post resuscitation (centhaquin 0.017 and 0.05 mg/kg, for at least 60 min, p<0.01): significant increase
- difference in HR following resuscitation (hypertonic saline or centhaquin): No significant difference
